Measurements from patent US8691183B2, “Means for the detection and treatment of prostate cells” (Eberhard-Karls-Universitaet Tuebingen Universitaetsklinikum, priority 2008, dated 2014).
Entries after “also recorded” stand apart in the source; their conditions may differ.

What was measured:
[1] = test system: LNCaP prostate carcinoma cells; experiment: In-vitro MRT / MR relaxometry of cells in Eppendorf tubes; type: cell-based, human; settings: for uptake / signal intensity of the cells in T1-weighted MRT images: 20 minutes incubation, washed, 130 μM
Method: (§1) For the MR relaxometry, all tumor cell lines were grown in 75 cm^2 culture flasks (Corning Costar, Bodenheim, Germany) (70% confluency). Accutase™ (PAA Laboratories, Pasching, Austria) was added to achieve detachment of the cells, which were harvested and subsequently aliquoted into Eppendorf tubes (6×10^6 cells per tube). The cells in the tubes were incubated with the DOTA-containing compounds (130 μM). After a 20 minutes incubation period at 37° C. in an atmosphere of 5% CO2, the cells were washed three times in PBS and centrifuged at 800 rpm for 5 minutes.
(§2) The in-vitro MRT was performed with a 3 Tesla-whole body MRT system (Magnetom TRIO, circular polarized wrist coil, Siemens, Erlangen, Germany)
(§3) Sagittal T1-weighted MR images were obtained using the following spin-echo sequence:
(§4) Repetition time (TR): 200 ms, echo time (TE): 7,4 ms, flip angle: 90°, averages: 1, concatenations: 2, measurements: 1, number of slices: 19, distance factor: 30%, slice thickness: 3 mm, field of view read: 180 mm/100%, resolution: 256/100%, voxel size: 0.7×0.7×3.0 mm, scan time: 1:48 min.
(§5) The T1 relaxation times were evaluated from signal intensities obtained by multiple spin-echo measurements:
(§6) Repetition time (TR): 20-8000 ms (50 different TR values), echo time (TE): 6.4 ms, flip angle: 90°, averages: 1, measurements: 1, number of slices: 1, slice thickness: 1 mm, field of view read: 120 mm/87.5%, resolution: 128/100%, voxel size: 0.9×0.9×1 mm.
(§7) The analysis and calculations were performed using a Matlab program (Math Works, Natick, Mass., USA). The T1 values were approximated by a three-parameter fit procedure. All signal curves were examined and found to be monoexponential. The investigations were performed in triplicate.

[2] = test system: other tumor cell lines (non-prostate); experiment: as above; type: cell-based, human; settings: other carcinoma cells; incubation, washed three times with PBS
Method: as §1, §2, §3, §4, §5, §6, §7

[3] = test system: seven human tumor cell lines and healthy human epithelial prostate cells (CC2555); experiment: Confocal laser scanning microscopy (CLSM) of cellular uptake, all cell types; type: cell-based; settings: corresponding amount of free dye, 20 minutes
Method: (§8) The cells were grown to 80% confluency at 37° C., 5% CO2 (vol/vol) in 4-well plates (NUNC, Wiesbaden, Germany) with about 300,000 cells per well.
(§9) U373 human glioma cells, human prostate carcinoma cells PC3 and LNCaP, human Jurkat lymphoma cells, and human colon carcinoma cells Colo205 were grown in RPMI1640 ready mix medium containing L-glutamine and 10% fetal bovine serum (FBS)-gold (PAA Laboratories, Pasching, Austria). U2OS human osteosarcoma cells and HeLa human cervix carcinoma cells were grown in high glucose Dulbeccos modified Eagle's medium containing GlutaMax™ and pyrovate and 10% FBS-gold. Healthy human prostate cells (CC2555, Lonza, Verviers, Belgium) were cultivated in prostate endothelial cell growth medium (PrEGM, Lonza, Verviers, Belgium).
The compounds 1, 2 and 4 were dissolved at 1 mg/ml in pure ethanol (Riedel de Haen, Sigma-Aldrich, Taufkirchen, Germany) and then diluted in the appropriate medium for the cells to 10 μg/ml of conjugate and 1% ethanol. The cells were incubated at 37° C. in an atmosphere of 5% CO2 for 20 minutes with the compounds. […]
(§10) The confocal laser scanning microscopy was performed on an inverted LSM510 laser scanning microscope (Carl Zeiss) (objective: LD Achroplan 40×0.6, Plan Neofluar 20×0.50, 40×0.75). For the rhodamine fluorescence excitation the 543 nm beam of a helium-neon laser with suitable beam splitters and barrier filters were used. […]

[4] = test system: LNCaP prostate carcinoma cells; experiment: Confocal laser scanning microscopy (CLSM) of cellular uptake; type: cell-based, human; settings: 20 minutes incubation, 10 μg/ml
Method: as §8, §9
(§11) The compounds 1, 2 and 4 were dissolved at 1 mg/ml in pure ethanol (Riedel de Haen, Sigma-Aldrich, Taufkirchen, Germany) and then diluted in the appropriate medium for the cells to 10 μg/ml of conjugate and 1% ethanol. The cells were incubated at 37° C. in an atmosphere of 5% CO2 for 20 minutes with the compounds. After this, the cells were rinsed three times with medium and then incubated with medium again. This experiment was also performed with free sulforhodamine B with a corresponding amount.
(§12) The confocal laser scanning microscopy was performed on an inverted LSM510 laser scanning microscope (Carl Zeiss) (objective: LD Achroplan 40×0.6, Plan Neofluar 20×0.50, 40×0.75). For the rhodamine fluorescence excitation the 543 nm beam of a helium-neon laser with suitable beam splitters and barrier filters were used. All measures were performed at least three times on living, non-fixed cells.

[5] = test system: colon carcinoma cells (Colo205); experiment: as above; type: cell-based, human; settings: 20 minutes incubation, 10 μg/ml
Method: as §8, §9, §11, §12

[6] = test system: PC-3 prostate carcinoma cells; experiment: In-vitro MRT / MR relaxometry of cells in Eppendorf tubes; type: cell-based, human; settings: rank among cell lines
Method: as §1, §2, §3, §4, §5, §6, §7

[7] = test system: healthy prostate cells (CC2555); experiment: as above; type: cell-based, human; settings: rank among cell lines
Method: as §1, §2, §3, §4, §5, §6, §7

[8] = test system: PC-3 prostate carcinoma cells; experiment: Confocal laser scanning microscopy (CLSM) of cellular uptake; type: cell-based, human; settings: 20 minutes incubation, 260 μM
Method: as §8, §9, §11
The compound 10 was dissolved in culture medium (260 μM). Lys(FITC)-aminobourgeonal (compound 7) was dissolved in culture medium with 1% ethanol (260 μM). The cells were incubated for 20 minutes (compound 10) and for 2 days (compounds 7 and 10). This assay was also performed with free FITC. After the incubation the cells were rinsed three times with medium and again incubated in medium. Propidium iodide (PI) (molecular probes, Eugene, Oreg., USA) was added to stain death cells.
as §10

[9] = test system: osteosarcoma cells (U2OS); experiment: as above; type: cell-based, human; settings: 20 minutes incubation, 260 μM
Method: as §8, §9
The compound 10 was dissolved in culture medium (260 μM). Lys(FITC)-aminobourgeonal (compound 7) was dissolved in culture medium with 1% ethanol (260 μM). The cells were incubated for 20 minutes (compound 10) and for 2 days (compounds 7 and 10). This assay was also performed with free FITC. […]
as §10

[10] = test system: PC-3 prostate carcinoma cells; experiment: Fluorescence activated cell sorting (FACS) of cellular uptake; type: cell-based, human; settings: 20 minutes incubation
Method: (§13) For the fluorescence activated cell sorting (FACS), cells were grown in 75 cm^2 culture flasks (Corning Costar, Bodenheim, Germany) (80% confluency) under the same conditions as described for the confocal laser scanning microscopy. Accutase™ (PAA Laboratories, Pasching, Austria) was added to achieve detachment of the cells, which were harvested and subsequently alequoted into Eppendorf tubes (Eppendorf, Hamburg, Germany) (1×10^6 cells per tube). The cells were incubated for 20 minutes with the compounds 1, 2 and 4 (10 μg/ml in the appropriate medium with 1% ethanol) and the compound 10 (130 μM in the appropriate medium).
(§14) Afterwards, the cells were washed three times in PBS and centrifuged at 800 rpm for 5 minutes. Then 300 μl FACS buffer (D-PBS containing 1% parafomaldehyde) were added. The samples were measured immediately. Approximately 20,000 events were recorded per sample. The fluorescence excitation was achieved by an argon laser (488 nm). The fluorescence was detected using a 580-610 and a 560-680 nm band-pass filter. All investigations were performed in triplicate.
(§15) Mean rhodamine and fluorescein isothiocyanate fluorescence values of the samples were acquired using the WinMDI software (Joseph Trotter, Scripps Research Institute, San Diego, Calif., USA) and then statistically evaluated.

[11] = test system: LNCaP prostate carcinoma cells; experiment: as above; type: cell-based, human; settings: 20 minutes incubation, 130 μM
Method: as §13, §14, §15

[12] = test system: non-prostate tumor cell lines; experiment: as above; type: cell-based, human; settings: 20 minutes incubation
Method: as §13, §14, §15

[13] = test system: healthy prostate cells (CC2555); experiment: as above; type: cell-based, human; settings: 20 minutes incubation, 130 μM
Method: as §13, §14, §15

[14] = test system: human PC3 prostate carcinoma in the right thigh of a nude mouse; experiment: Magnetic resonance tomography of nude mouse with implanted tumor; type: in vivo; settings: 90 minutes after intravenous administration
Method: PC3 and LNCaP prostate tumor cells were grown to 80% confluency, detached with Accutase™ (PAA Laboratories, Pasching, Austria) and then harvested. The cells were washed with PBS three times and then drawn up into a 30 g Micro-Fine™ insulin syringe (Becton Dickinson, Franklin Lakes, N.J., USA). Approximately 5×10^5 cells per mouse were injected into the right thigh of a male CD1 Nu/Nu mouse (Charles River, WIGA, Sulzfeld, Germany). The tumor growth was monitored and after 10 to 14 days mice bearing tumors with 2-3 mm in diameter were treated with the conjugate. 1.5 mg of the compound 1 were dissolved in 300 μl PBS containing 20% ethanol and applied intraperitoneally. […] Frozen sections (5 μm thickness) were prepared (LD3000 Cryotom, Leica Biosystems GmbH, Nussloch, Germany) and the rhodamine staining was analyzed by confocal laser scanning
The magnetic resonance tomography (MRT) measurements were performed using a clinical 3-Tesla Siemens whole body MRT (Magnetom TRIO; Siemens, Erlangen, Germany) with the mice in prone position in a standard circular polarized wrist coil. The MRT protocol consisted of native and post-contrast T1 weighted axial images: slice thickness 2 mm, field of view read: 60 mm/7.5%, Voxel size: 0.2×0.2×2 mm, repetition time (TR): 800 ms, echo time (TE): 9.1 ms, flip angle: 90°, acquisitions: tions: 2, number of slices: 25, distance factor: 0, scan time 06:02 min. […]

O=C([O-])CN1CCN(CC(=O)[O-])CCN(CC(=O)O)CCN(CC(=O)[O-])CC1.[Gd+3] [Gd-DOTA, reference compound]
uptake / signal intensity of the cells in T1-weighted MRT images ([1]; LNCaP): not taken up by the prostate carcinoma cells; also recorded: remain dark | signal intensity of the cells in T1-weighted MRT images [2]: remain dark

sulforhodamine B
uptake by any cell type (rhodamine staining, CLSM) [3]: not taken up by any cell types

CCN(CC)c1ccc2c(-c3ccc(S(=O)(=O)NCCC(=O)Nc4ccc(/C=C\C=O)cc4)cc3S(=O)(=O)[O-])c3ccc(=[N+](CC)CC)cc-3oc2c1 [compound 2, Sulforhodamine-Sulfonamido βAla-Aminocinnamaldehyde]
uptake into the cells (rhodamine staining, CLSM) [4]: significantly stained | uptake into the cells (rhodamine staining, CLSM) [5]: basically unstained

O=CCCCCCCCCCCNC(=O)C(CCCCN=S=C=Nc1ccc2c(c1)C(=O)OC21c2ccc(O)cc2Oc2cc(O)ccc21)NC(=O)C[N+]12CC[N+]3(CC(=O)O)CCN(CC(=O)O)CC[N+](CC(=O)O)(CC1)[Gd]32 (centres unmarked) [compound 10, Gd-DOTA-Lys(FITC) aminoundecylic aldehyde]
difference of the T1-time (before minus after the incubation) [6]: strongest reduction of the T1-time | uptake / signal intensity of the cells in T1-weighted MRT images ([1]; LNCaP): uptaken into the cytoplasm of the prostate carcinoma cells; also recorded: increase of the signal intensity | difference of the T1-time (before minus after the incubation) ([1]; LNCaP, rank among cell lines): strongest reduction of the T1-time | T1-time reduction in comparison to simple Gd-DOTA ([1]; prostate carcinoma cells (LNCaP)): significantly stronger T1-time reduction | signal intensity of the cells in T1-weighted MRT images [2]: only with the LNCaP-prostate carcinoma cells | difference of the T1-time (before minus after the incubation) [7]: strongest reduction of the T1-time | uptake into the cells (FITC staining, CLSM) [8]: very well uptaken into the cytoplasm | uptake into the cells (FITC staining, CLSM) [9]: not into the osteosarcoma cells | staining (FITC fluorescence, FACS) ([10]; PC-3, 130 μM): stained | staining (FITC fluorescence, FACS) [11]: stained | staining (FITC fluorescence, FACS) ([12]; non-prostate tumor cell lines, 130 μM): not the non-prostate tumor cell lines | staining (FITC fluorescence, FACS) [13]: stained | MRT staining of non-prostate carcinoma cells [14]: remain unstained | MRT signal of the prostate carcinoma cells ([14]; 10 days after implantation): increased signal intensity

fluorescein isothiocyanate [FITC, reference compound]
uptake into the cells (FITC staining, CLSM) [8]: not uptaken by the cells | uptake into the cells (FITC staining, CLSM) [9]: not uptaken by the cells

CCN(CC)c1ccc2c(-c3ccc(S(=O)(=O)NCCC(=O)NCCCCCCCC=O)cc3S(=O)(=O)O)c3ccc(=[N+](CC)CC)cc-3oc2c1 [compound 4, sulforhodamine-sulfonamido βala-aminooctanal]
fluorescence (rhodamine, FACS) ([10]; PC3, 10 μg/ml): highest fluorescence | fluorescence (rhodamine, FACS) ([12]; remaining carcinoma cell lines, 10 μg/ml): only show little staining
